From the supplement of paper PMC8967900

How the values were obtained:
Assay in all cases: selective drug sensitivity score (sDSS, relative to normal bone marrow) (sDSS (score)); higher = more potent and effective on the cell line relative to normal bone marrow cells
Conditions in all cases: 72 h
380 = tested on: 380
ALL-PO = tested on: ALL-PO
ALL-SIL = tested on: ALL-SIL
COG-LL-317 = tested on: COG-LL-317
COG-LL-355h = tested on: COG-LL-355h
COG-LL-402h = tested on: COG-LL-402h
DND-41 = tested on: DND-41
HAL-01 = tested on: HAL-01
KASUMI-10 = tested on: KASUMI-10
KASUMI-9 = tested on: KASUMI-9
KOPN-8 = tested on: KOPN-8
LC4-1 = tested on: LC4-1
MOLT-14 = tested on: MOLT-14
MOLT-16 = tested on: MOLT-16
NALM-6 = tested on: NALM-6
P30-OHKUBO = tested on: P30-OHKUBO
RCH-ACV = tested on: RCH-ACV
REH = tested on: REH
SEM cells = tested on: SEM cells
TANOUE = tested on: TANOUE
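Also: ALL cell lines in 384-well plates, five doses spanning 10,000-fold, each plate scaled between vehicle and 100 µmol/L benzalkonium chloride controls, sDSS an adapted area-under-curve metric.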

Row | SMILES | selective drug sensitivity score 380 | selective drug sensitivity score (ALL-PO) | selective drug sensitivity score (ALL-SIL) | selective drug sensitivity score (COG-LL-317) | selective drug sensitivity score (COG-LL-355h) | selective drug sensitivity score (COG-LL-402h) | selective drug sensitivity score (DND-41) | selective drug sensitivity score (HAL-01) | selective drug sensitivity score (KASUMI-10) | selective drug sensitivity score (KASUMI-9) | selective drug sensitivity score (KOPN-8) | selective drug sensitivity score (LC4-1) | selective drug sensitivity score (MOLT-14) | selective drug sensitivity score (MOLT-16) | selective drug sensitivity score (NALM-6) | selective drug sensitivity score (P30-OHKUBO) | selective drug sensitivity score (RCH-ACV) | selective drug sensitivity score (REH) | selective drug sensitivity score (SEM cells) | selective drug sensitivity score (TANOUE)
1 | CNC(=O)c1nn(C)c2c1C(C)(C)Cc1cnc(Nc3ccc(N4CCN(C)CC4)cc3)nc1-2 [Milciclib] (top concentration 10000 nM) | -0.06 | 9.94 | 10.9 | 8.94 | 5.44 | 12 | 9.04 | 5.94 | 12.6 | 9.94 | 5.84 | 5.94 | 7.04 | 6.44 | 1.94 | 4.94 | 14.3 | 4.44 | 10 | -3.76
2 | CCc1cnn2c(NCc3ccc[n+]([O-])c3)cc(N3CCCC[C@H]3CCO)nc12 [Dinaciclib] (top concentration 1000 nM) | -5.34 | -6.64 | -1.74 | 1.26 | -4.14 | 2.86 | -0.14 | -5.74 | -2.24 | 1.26 | -6.34 | -3.64 | -3.24 | -2.24 | -2.04 | 0.26 | -0.64 | -5.84 | -4.34 | -14.3
3 | CC(C)c1c(C(=O)Nc2ccccc2)c(-c2ccccc2)c(-c2ccc(F)cc2)n1CC[C@@H](O)C[C@@H](O)CC(=O)O [Atorvastatin] (top concentration 10000 nM) | -3 | 1.1 | 4.2 | 8 | 4.2 | -1.8 | 1.9 | -1.9 | -1.8 | -3.7 | 6.6 | 4.9 | -0.9 | 2 | 1.4 | -2.2 | -1 | 1 | 0.4 | -3.7
4 | COc1ccc(Cn2ccc3ccc(C(=O)NO)cc32)cc1 (top concentration 10000 nM) | 10.2 | 2.84 | 2.64 | 13.7 | 0.74 | 5.44 | 2.94 | 5.84 | 3.14 | 2.24 | 8.74 | 4.54 | 5.64 | 4.04 | 1.54 | 2.24 | 1.54 | 2.54 | 2.94 | 1.34
5 | CC1(C)OCCn2c1nc1c(N3CCOCC3)nc(-c3cnc(N)nc3)nc12 [GDC-0084] (top concentration 10000 nM) | 15 | 11.8 | 4.8 | 3.1 | 9 | 7.5 | 1.8 | 11 | 3.9 | 9.5 | 13.2 | 4.2 | 1.3 | 6.8 | 7 | 10.9 | 20.8 | 8.8 | 14.4 | -4.9
6 | COc1cccc(OCCCN)c1-c1cc(Nc2cnc(C#N)cn2)n[nH]1 [Prexasertib] (top concentration 10000 nM) | 15.7 | 14.5 | 20.8 | 20.2 | 4.24 | 14.8 | 19.6 | 19 | 16.1 | 20.4 | 20.4 | 19.6 | 18.4 | 21 | 18.4 | 21.3 | 20.9 | 17 | 15.9 | -0.86
7 | COc1cccc2c1C(=O)c1c(O)c3c(c(O)c1C2=O)C[C@@](O)(C(=O)CO)C[C@@H]3O[C@H]1C[C@H](N)[C@H](O)[C@H](C)O1 [Doxorubicin] (top concentration 1000 nM) | 11.9 | -0.12 | 1.68 | 15 | 3.98 | 13.1 | 1.58 | 1.38 | 7.48 | 7.48 | 13.3 | 5.48 | 13.8 | 16.1 | 3.38 | 5.18 | 10.6 | 9.28 | 4.08 | -7.62
8 | CS(=O)(=O)c1ccc(C(=O)Nc2ccc(Cl)c(-c3ccccn3)c2)c(Cl)c1 [Vismodegib] (top concentration 10000 nM) | 0.76 | 3.56 | 0.36 | -1.14 | 2.26 | -1.14 | 2.76 | -1.14 | -1.14 | -0.74 | 6.76 | 5.26 | -1.14 | -1.14 | -1.14 | 0.36 | 3.46 | -1.14 | 2.06 | -1.14
9 | O=C(NC1CCNCC1)c1n[nH]cc1NC(=O)c1c(Cl)cccc1Cl [AT7519] (top concentration 10000 nM) | -4.86 | -14.4 | -6.06 | -4.06 | 2.74 | -3.66 | -5.66 | -14.6 | -2.76 | -3.66 | -5.06 | -4.26 | -3.86 | -3.06 | -2.76 | -2.96 | -3.16 | -2.16 | -4.76 | -17.8
